Data from article PMC7819857, “Identification of Inhibitors of Integrin Cytoplasmic Domain Interactions With Syk” (Frontiers in Immunology, 2021).

System: FcγRI signaling via Syk in THP-1 cells
Assay: FcγRI-crosslinking-induced phosphorylation of Syk in THP-1 cells
Type: cell-based, human
Conditions: 100 µM loaded cells, anti-FcγRI mAb 276426
Experimental: Syk phosphorylation assays were performed by immobilizing vascular cell adhesion molecule-1 (VCAM)-1 (3 ug/ml), CS-1-BSA (10 ug/ml), or specific monoclonal antibodies (anti-FcγRI mAb 276426, anti-α4β1 mAb 19H8, anti-β2 mAb 76C3, anti-αvβ3 mAb LM609 all at 5 ug/ml) overnight at 4°C in Tris-HCl pH 7.5, 150 mM NaCl, in 6-well plates (non-tissue culture treated, Becton Dickenson, cat# BD351146). Plates were then blocked with BSA (2% w/v) for 1 h at room temperature. […] After electrophoresis, proteins were transferred to nitrocellulose for 1 h 100 V room temperature, blocked in 5% non-fat milk in TBS-T, and probed with the indicated primary antibody at 1:1,000 overnight at 4°C, followed by species-appropriate HRP secondary antibody (Southern Biotech) at 1:5,000 (30 min at room temperature), and detected using Pierce West Pico (Thermo Scientific cat# 34580). […]
Figure 6 Selective inhibition of integrin signaling by ceftazidime. […] Data are expressed as mean ± range from duplicate determinations. […] Kinase activity is expressed as percent of maximum signal. Data are expressed as mean ± SEM (n = 3). **p < 0.01 (D) Selective effects of ceftazidime on integrin signaling. […] Phosphorylation of Syk (left and right panel) and Pyk-2 (center panel) was analyzed by immunoprecipitation and western blot. […] Results are expressed as the mean ± SEM. […]

Structure (SMILES): CC(C)(O/N=C(\C(=O)N[C@@H]1C(=O)N2C(C(=O)[O-])=C(C[n+]3ccccc3)CS[C@H]12)c1csc(N)n1)C(=O)O [ceftazidime]
- tyrosine phosphorylation of Syk on FcγRI crosslinking: not inhibited
